Experimental data published in patent EP4745137A1 (Gluetacs Therapeutics (Shanghai) Co., Ltd., priority 2023, dated 2025).

Tests used:
GSPT1 = target: T1, GSPT1 (Homo sapiens, UniProt P15170+Q96SW2); test: Western-blot assay of substrate protein degradation in hPBMCs, GSPT1; format: cell-based; conditions: 24 hours of compound treatment, compounds tested at 50 nM and 500 nM (concentration of the table not stated)
T1 construct: endogenous in cells; host or cells: hPBMCs (Milecell Biotechnologies)
T1 sequence (P15170 whole entry): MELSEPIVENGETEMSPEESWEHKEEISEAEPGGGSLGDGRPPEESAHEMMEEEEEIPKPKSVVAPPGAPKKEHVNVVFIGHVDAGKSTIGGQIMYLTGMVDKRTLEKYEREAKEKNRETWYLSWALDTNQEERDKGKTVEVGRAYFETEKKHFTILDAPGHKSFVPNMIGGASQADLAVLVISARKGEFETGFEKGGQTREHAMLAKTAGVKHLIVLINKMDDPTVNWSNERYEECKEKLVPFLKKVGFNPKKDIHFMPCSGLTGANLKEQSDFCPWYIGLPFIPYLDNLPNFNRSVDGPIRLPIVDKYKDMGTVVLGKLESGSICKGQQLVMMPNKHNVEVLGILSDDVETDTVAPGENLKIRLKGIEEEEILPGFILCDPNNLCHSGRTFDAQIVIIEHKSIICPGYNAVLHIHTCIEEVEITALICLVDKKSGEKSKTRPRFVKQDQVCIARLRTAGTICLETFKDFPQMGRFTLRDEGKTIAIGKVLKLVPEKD
T1 sequence (Q96SW2 whole entry): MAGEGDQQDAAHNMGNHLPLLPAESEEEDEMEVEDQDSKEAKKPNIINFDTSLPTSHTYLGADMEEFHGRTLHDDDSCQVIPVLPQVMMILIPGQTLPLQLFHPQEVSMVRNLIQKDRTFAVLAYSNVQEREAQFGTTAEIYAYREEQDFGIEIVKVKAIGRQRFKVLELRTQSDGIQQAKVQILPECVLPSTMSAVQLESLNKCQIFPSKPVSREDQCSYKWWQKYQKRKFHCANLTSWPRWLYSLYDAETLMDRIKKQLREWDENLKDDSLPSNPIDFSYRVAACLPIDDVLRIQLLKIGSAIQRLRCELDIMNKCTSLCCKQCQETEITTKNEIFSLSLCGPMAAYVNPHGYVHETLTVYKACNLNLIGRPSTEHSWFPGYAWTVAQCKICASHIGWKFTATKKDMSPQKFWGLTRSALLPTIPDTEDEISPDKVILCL
T1 sequence (Q16531 whole entry partner): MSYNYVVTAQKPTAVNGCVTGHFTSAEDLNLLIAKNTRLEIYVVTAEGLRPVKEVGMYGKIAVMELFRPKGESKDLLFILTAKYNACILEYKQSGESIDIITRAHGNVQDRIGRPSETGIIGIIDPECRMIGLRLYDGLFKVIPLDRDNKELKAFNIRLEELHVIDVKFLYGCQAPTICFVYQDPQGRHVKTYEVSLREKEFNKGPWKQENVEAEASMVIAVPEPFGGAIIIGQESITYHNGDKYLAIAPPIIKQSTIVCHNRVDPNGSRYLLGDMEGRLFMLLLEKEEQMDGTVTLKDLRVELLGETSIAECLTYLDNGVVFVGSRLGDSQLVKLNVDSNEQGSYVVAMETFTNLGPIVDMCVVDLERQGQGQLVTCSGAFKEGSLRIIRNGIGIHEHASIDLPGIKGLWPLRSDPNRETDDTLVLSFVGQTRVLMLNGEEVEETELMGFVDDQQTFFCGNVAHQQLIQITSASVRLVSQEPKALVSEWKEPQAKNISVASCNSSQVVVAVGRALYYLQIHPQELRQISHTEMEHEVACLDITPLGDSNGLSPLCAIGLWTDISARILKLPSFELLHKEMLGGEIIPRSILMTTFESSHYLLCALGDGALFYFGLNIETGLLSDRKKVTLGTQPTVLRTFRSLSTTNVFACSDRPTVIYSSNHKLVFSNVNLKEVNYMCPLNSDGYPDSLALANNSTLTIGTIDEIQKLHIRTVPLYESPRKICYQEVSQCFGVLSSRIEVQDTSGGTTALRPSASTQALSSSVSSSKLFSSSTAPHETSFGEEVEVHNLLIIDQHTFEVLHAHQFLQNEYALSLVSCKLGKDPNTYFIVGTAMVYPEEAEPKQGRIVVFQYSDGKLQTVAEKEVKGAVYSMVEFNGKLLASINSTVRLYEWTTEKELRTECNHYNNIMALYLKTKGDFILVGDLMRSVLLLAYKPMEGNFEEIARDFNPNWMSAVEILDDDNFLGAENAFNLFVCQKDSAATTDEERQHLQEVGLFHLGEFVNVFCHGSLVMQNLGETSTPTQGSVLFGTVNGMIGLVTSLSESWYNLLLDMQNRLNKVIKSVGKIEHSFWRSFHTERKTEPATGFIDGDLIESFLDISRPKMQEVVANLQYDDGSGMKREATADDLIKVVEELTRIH

CK1α = target: T2, CK1α (Homo sapiens, UniProt P48729+Q96SW2); test: Western-blot assay of substrate protein degradation in hPBMCs, CK1α; format: cell-based; conditions: 24 hours of compound treatment, compounds tested at 50 nM and 500 nM (concentration of the table not stated)
T2 construct: endogenous in cells; host or cells: hPBMCs (Milecell Biotechnologies)
T2 sequence (P48729 whole entry): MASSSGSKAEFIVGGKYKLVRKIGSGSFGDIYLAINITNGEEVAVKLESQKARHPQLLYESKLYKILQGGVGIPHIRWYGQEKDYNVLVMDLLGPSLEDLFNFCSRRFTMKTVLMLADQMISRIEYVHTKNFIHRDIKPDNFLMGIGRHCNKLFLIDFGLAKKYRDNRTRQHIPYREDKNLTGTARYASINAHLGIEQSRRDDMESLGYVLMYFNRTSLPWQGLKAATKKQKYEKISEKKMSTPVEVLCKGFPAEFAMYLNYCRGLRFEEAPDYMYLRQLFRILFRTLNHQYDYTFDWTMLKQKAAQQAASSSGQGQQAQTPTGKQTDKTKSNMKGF
T2 sequence (Q96SW2 whole entry): as the sequence (Q96SW2 whole entry) above
T2 sequence (Q16531 whole entry partner): as the sequence (Q16531 whole entry partner) above

NCI-H1975 = test: Tumor cell proliferation inhibition (CellTiter-Meiluncell Luminescent Cell Viability Assay), NCI-H1975; conditions: Homo sapiens, NCI-H1975, read-out: inhibitory activity (IC50, nM) against tumor cells proliferation, H1975
WEE1 = target: T3, WEE1 (Homo sapiens, UniProt P30291+Q96SW2); test: Western-blot assay of substrate protein degradation in hPBMCs, WEE1; format: cell-based; conditions: 24 hours of compound treatment, compounds tested at 50 nM and 500 nM (concentration of the table not stated)
T3 construct: endogenous in cells; host or cells: hPBMCs (Milecell Biotechnologies)
T3 sequence (P30291 whole entry): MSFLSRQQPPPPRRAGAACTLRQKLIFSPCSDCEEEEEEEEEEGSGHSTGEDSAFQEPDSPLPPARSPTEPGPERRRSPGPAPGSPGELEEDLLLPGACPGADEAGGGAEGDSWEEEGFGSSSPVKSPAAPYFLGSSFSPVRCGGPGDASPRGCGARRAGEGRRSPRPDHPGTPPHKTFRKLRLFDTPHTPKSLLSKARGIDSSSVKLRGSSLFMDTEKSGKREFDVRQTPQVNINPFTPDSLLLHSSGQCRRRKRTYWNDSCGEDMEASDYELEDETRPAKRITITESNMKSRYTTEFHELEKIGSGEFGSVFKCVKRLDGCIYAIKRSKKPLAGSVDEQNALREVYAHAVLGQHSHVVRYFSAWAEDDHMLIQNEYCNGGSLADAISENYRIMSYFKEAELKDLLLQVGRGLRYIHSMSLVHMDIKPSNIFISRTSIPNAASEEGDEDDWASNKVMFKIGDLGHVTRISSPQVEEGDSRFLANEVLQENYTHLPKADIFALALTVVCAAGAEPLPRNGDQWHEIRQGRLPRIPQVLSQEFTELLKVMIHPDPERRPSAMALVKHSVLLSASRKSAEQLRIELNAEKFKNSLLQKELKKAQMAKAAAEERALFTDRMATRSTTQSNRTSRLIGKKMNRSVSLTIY
T3 sequence (Q96SW2 whole entry): as the sequence (Q96SW2 whole entry) above
T3 sequence (Q16531 whole entry partner): as the sequence (Q16531 whole entry partner) above

MM.1S = test: Tumor cell proliferation inhibition (CellTiter-Meiluncell Luminescent Cell Viability Assay), MM.1S; conditions: Homo sapiens, MM1.S, read-out: inhibitory activity (IC50, nM) against tumor cells proliferation, MM.1S
IKZF1 = target: T4, IKZF1 (Homo sapiens, UniProt Q13422+Q96SW2); test: Western-blot assay of substrate protein degradation in hPBMCs, IKZF1; format: cell-based; conditions: 24 hours of compound treatment, compounds tested at 50 nM and 500 nM (concentration of the table not stated)
T4 construct: endogenous in cells; host or cells: hPBMCs (Milecell Biotechnologies)

IKZF3 = target: T5, IKZF3 (Homo sapiens, UniProt Q96SW2+Q9UKT9); test: Western-blot assay of substrate protein degradation in hPBMCs, IKZF3; format: cell-based; conditions: 24 hours of compound treatment, compounds tested at 50 nM and 500 nM (concentration of the table not stated)
T5 construct: endogenous in cells; host or cells: hPBMCs (Milecell Biotechnologies)
T5 sequence (Q9UKT9 whole entry): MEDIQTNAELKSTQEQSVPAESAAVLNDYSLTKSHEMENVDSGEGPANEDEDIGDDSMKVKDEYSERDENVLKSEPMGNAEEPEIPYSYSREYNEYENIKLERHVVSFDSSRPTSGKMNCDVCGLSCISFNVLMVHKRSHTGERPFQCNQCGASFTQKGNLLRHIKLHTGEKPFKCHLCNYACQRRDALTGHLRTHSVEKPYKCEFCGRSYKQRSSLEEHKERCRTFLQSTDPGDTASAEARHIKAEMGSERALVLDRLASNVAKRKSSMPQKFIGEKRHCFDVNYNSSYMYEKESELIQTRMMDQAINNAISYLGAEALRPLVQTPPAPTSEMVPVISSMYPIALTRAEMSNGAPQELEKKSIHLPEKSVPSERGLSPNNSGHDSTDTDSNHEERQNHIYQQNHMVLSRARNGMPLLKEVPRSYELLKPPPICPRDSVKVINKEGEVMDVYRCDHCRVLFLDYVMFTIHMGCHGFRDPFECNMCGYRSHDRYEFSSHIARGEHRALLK
T5 sequence (Q96SW2 whole entry): as the sequence (Q96SW2 whole entry) above
T5 sequence (Q16531 whole entry partner): as the sequence (Q16531 whole entry partner) above

IKZF2 = target: T6, IKZF2 (Homo sapiens, UniProt Q96SW2+Q9UKS7); test: Western-blot assay of substrate protein degradation in hPBMCs, IKZF2; format: cell-based; conditions: 24 hours of compound treatment, compounds tested at 50 nM and 500 nM (concentration of the table not stated)
T6 construct: endogenous in cells; host or cells: hPBMCs (Milecell Biotechnologies)
T6 sequence (Q9UKS7 whole entry): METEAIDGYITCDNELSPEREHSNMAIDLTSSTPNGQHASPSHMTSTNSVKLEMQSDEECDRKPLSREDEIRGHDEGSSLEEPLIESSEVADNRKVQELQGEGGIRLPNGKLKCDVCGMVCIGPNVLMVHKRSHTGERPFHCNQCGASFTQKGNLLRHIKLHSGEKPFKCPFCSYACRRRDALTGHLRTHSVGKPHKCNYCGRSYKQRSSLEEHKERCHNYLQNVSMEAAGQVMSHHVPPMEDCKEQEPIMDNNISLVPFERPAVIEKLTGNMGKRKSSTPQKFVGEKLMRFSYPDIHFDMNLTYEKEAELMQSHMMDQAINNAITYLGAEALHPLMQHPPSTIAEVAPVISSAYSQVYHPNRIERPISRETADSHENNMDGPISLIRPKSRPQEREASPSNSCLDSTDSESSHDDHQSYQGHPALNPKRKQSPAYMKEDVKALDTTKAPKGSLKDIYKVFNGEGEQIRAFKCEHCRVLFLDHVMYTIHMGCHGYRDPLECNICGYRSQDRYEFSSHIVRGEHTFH
T6 sequence (Q96SW2 whole entry): as the sequence (Q96SW2 whole entry) above
T6 sequence (Q16531 whole entry partner): as the sequence (Q16531 whole entry partner) above

Jurkat = test: Tumor cell proliferation inhibition (CellTiter-Meiluncell Luminescent Cell Viability Assay), Jurkat; conditions: Homo sapiens, read-out: inhibitory activity (IC50, nM) against tumor cells proliferation, Jurkat
[1] = target: T7, human Cereblon WT GST-tagged protein (Homo sapiens, UniProt Q96SW2); test: CRBN-binding affinity by HTRF (CEREBLON BINDING kit); conditions: HTRF inhibitory activity, CEREBLON BINDING kit; read-out: HTRF IC50
T7 construct: purchased CISBIO 64BDCRBNPEH
T7 sequence (Q96SW2 whole entry): as the sequence (Q96SW2 whole entry) above

SMILES | GSPT1 substrate protein remaining % (GSPT1) | CK1a substrate protein remaining % (CK1α) | IC50 (NCI-H1975) | Weel substrate protein remaining % (WEE1) | IC50 (MM.1S) | IKZF 1 substrate protein remaining % (IKZF1) | IKZF3 substrate protein remaining % (IKZF3) | IKZF2 substrate protein remaining % (IKZF2) | IC50 (Jurkat) | IC50 [1]
O=C1CCC(N2Cc3cc(CN4CCC(c5noc6ccccc56)CC4)ccc3C2=O)C(=O)N1 (stereo not drawn) [GT-04907, 3-(5-((4-(benzo[d]isoxazol-3-yl)piperidin-1-yl)methyl)-1-oxoisoindolin-2-yl)piperidine-2,6-dione] | A (0% ≤ substrate protein remaining % ≤ 80%) | B (80%< substrate protein remaining %≤ 100%) | 50 to 100 nM | A (0% ≤ substrate protein remaining % ≤ 80%) | 1 to 5 nM | A (0% ≤ substrate protein remaining % ≤ 80%) | A (0% ≤ substrate protein remaining % ≤ 80%) | A (0% ≤ substrate protein remaining % ≤ 80%) | 50 to 100 nM | < 500 nM
O=C1CCC(N2Cc3cc(CN4C[C@@H]5C[C@H]4CN5c4cccc(Cl)c4Cl)ccc3C2=O)C(=O)N1 (stereo partly drawn) [GT-04898, 3-(5-(((1S,4S)-5-(2,3-dichlorophenyl)-2,5-diazabicyclo[2.2.1]heptan-2-yl)methyl)-1-oxoisoindolin-2-yl)piperidine-2,6-dione] | A (0% ≤ substrate protein remaining % ≤ 80%) | B (80%< substrate protein remaining %≤ 100%) | – | B (80%< substrate protein remaining %≤ 100%) | 5 to 10 nM | A (0% ≤ substrate protein remaining % ≤ 80%) | A (0% ≤ substrate protein remaining % ≤ 80%) | A (0% ≤ substrate protein remaining % ≤ 80%) | – | < 500 nM
Cc1nc(C2=CCN(Cc3ccc4c(c3)CN(C3CCC(=O)NC3=O)C4=O)CC2)c2c3c(sc2n1)CCCC3 (stereo not drawn) [GT-04863, 3-(5-((4-(2-methyl-5,6,7,8-tetrahydrobenzo[4,5]thieno[2,3-d]pyrimidin-4-yl)-3,6-dihydropyridin-1 (2H)-yl)methyl)-1-oxoisoindolin-2-yl)piperidine-2,6-dione] | A (0% ≤ substrate protein remaining % ≤ 80%) | A (0% ≤ substrate protein remaining % ≤ 80%) | – | A (0% ≤ substrate protein remaining % ≤ 80%) | 10 to 50 nM | A (0% ≤ substrate protein remaining % ≤ 80%) | A (0% ≤ substrate protein remaining % ≤ 80%) | A (0% ≤ substrate protein remaining % ≤ 80%) | – | < 500 nM
O=C1CCC(N2Cc3cc(CN4CCC(n5cnc6cc(F)ccc65)CC4)ccc3C2=O)C(=O)N1 (stereo not drawn) [GT-04905, 3-(5-((4-(5-fluoro-1H-benzo[d]imidazol-1-yl)piperidin-1-yl)methyl)-1-oxoisoindolin-2-yl)piperidine-2,6-dione] | A (0% ≤ substrate protein remaining % ≤ 80%) | B (80%< substrate protein remaining %≤ 100%) | 100 to 500 nM | B (80%< substrate protein remaining %≤ 100%) | 1 to 5 nM | B (80%< substrate protein remaining %≤ 100%) | A (0% ≤ substrate protein remaining % ≤ 80%) | A (0% ≤ substrate protein remaining % ≤ 80%) | 100 to 500 nM | < 500 nM
O=C1CCC(N2Cc3cc(CN4CCC(N5CCOc6cc(F)ccc65)CC4)ccc3C2=O)C(=O)N1 (stereo not drawn) [GT-04859, 3-(5-((4-(7-fluoro-2,3-dihydro-4H-benzo[b][1,4]oxazin-4-yl)piperidin-1-yl)methyl)-1-oxoisoindolin-2-yl)piperidine-2,6-dione] | A (0% ≤ substrate protein remaining % ≤ 80%) | B (80%< substrate protein remaining %≤ 100%) | – | B (80%< substrate protein remaining %≤ 100%) | 50 to 100 nM | A (0% ≤ substrate protein remaining % ≤ 80%) | A (0% ≤ substrate protein remaining % ≤ 80%) | A (0% ≤ substrate protein remaining % ≤ 80%) | – | < 500 nM
Cc1nc(N2CCN(Cc3ccc4c(c3)CN(C3CCC(=O)NC3=O)C4=O)CC2)c2c3c(sc2n1)CCCC3 (stereo not drawn) [GT-04900, 3-(5-((4-(2-methyl-5,6,7,8-tetrahydrobenzo[4,5]thieno[2,3-d]pyrimidin-4-yl)piperazin-1-yl)methyl)-1-oxoisoindolin-2-yl)piperidine-2,6-dione] | B (80%< substrate protein remaining %≤ 100%) | A (0% ≤ substrate protein remaining % ≤ 80%) | – | B (80%< substrate protein remaining %≤ 100%) | 10 to 50 nM | A (0% ≤ substrate protein remaining % ≤ 80%) | A (0% ≤ substrate protein remaining % ≤ 80%) | A (0% ≤ substrate protein remaining % ≤ 80%) | – | < 500 nM
O=C1CCC(N2Cc3cc(CN4CC5CCC4CN5c4cccc(Cl)c4Cl)ccc3C2=O)C(=O)N1 (stereo not drawn) [GT-04930, 3-(5-((5-(2,3-dichlorophenyl)-2,5-diazabicyclo[2.2.2]octan-2-yl)methyl)-1-oxoisoindolin-2-yl)piperidine-2,6-dione] | A (0% ≤ substrate protein remaining % ≤ 80%) | B (80%< substrate protein remaining %≤ 100%) | – | A (0% ≤ substrate protein remaining % ≤ 80%) | 10 to 50 nM | A (0% ≤ substrate protein remaining % ≤ 80%) | A (0% ≤ substrate protein remaining % ≤ 80%) | A (0% ≤ substrate protein remaining % ≤ 80%) | – | < 500 nM
O=C1CCC(N2C(=O)c3ccc(CN4CCN(c5cccc6sccc56)CC4)cc3C2=O)C(=O)N1 (stereo not drawn) [GT-04915, 5-((4-(benzo[b]thiophen-4-yl)piperazin-1-yl)methyl)-2-(2,6-dioxopiperidin-3-yl)isoindoline-1,3-dione] | A (0% ≤ substrate protein remaining % ≤ 80%) | A (0% ≤ substrate protein remaining % ≤ 80%) | 500 to 1000 nM | A (0% ≤ substrate protein remaining % ≤ 80%) | 100 to 500 nM | A (0% ≤ substrate protein remaining % ≤ 80%) | A (0% ≤ substrate protein remaining % ≤ 80%) | A (0% ≤ substrate protein remaining % ≤ 80%) | 100 to 500 nM | –
O=C1CCC(N2Cc3cc(CN4CCC(C5CCOc6cc(F)ccc65)CC4)ccc3C2=O)C(=O)N1 (stereo not drawn) [GT-04901, 3-(5-((4-(7-fluorochroman-4-yl)piperidin-1-yl)methyl)-1-oxoisoindolin-2-yl)piperidine-2,6-dione] | B (80%< substrate protein remaining %≤ 100%) | B (80%< substrate protein remaining %≤ 100%) | – | B (80%< substrate protein remaining %≤ 100%) | 10 to 50 nM | A (0% ≤ substrate protein remaining % ≤ 80%) | A (0% ≤ substrate protein remaining % ≤ 80%) | A (0% ≤ substrate protein remaining % ≤ 80%) | – | < 500 nM
O=C1CCC(N2Cc3cc(CN4CCCN(c5cccc(Cl)c5Cl)CC4)ccc3C2=O)C(=O)N1 (stereo not drawn) [GT-04856, 3-(5-((4-(2,3-dichlorophenyl)-1,4-diazepan-1-yl)methyl)-1-oxoisoindolin-2-yl)piperidine-2,6-dione] | A (0% ≤ substrate protein remaining % ≤ 80%) | B (80%< substrate protein remaining %≤ 100%) | – | A (0% ≤ substrate protein remaining % ≤ 80%) | 10 to 50 nM | A (0% ≤ substrate protein remaining % ≤ 80%) | A (0% ≤ substrate protein remaining % ≤ 80%) | A (0% ≤ substrate protein remaining % ≤ 80%) | – | 500 to 1000 nM
O=C1CCC(N2Cc3cc(CN4CCN(c5nc(N6CCOCC6)nc6ccsc56)CC4)ccc3C2=O)C(=O)N1 (stereo not drawn) [GT-04903, 3-(5-((4-(2-morpholinothieno[3,2-d]pyrimidin-4-yl)piperazin-1-yl)methyl)-1-oxoisoindolin-2-yl)piperidine-2,6-dione] | A (0% ≤ substrate protein remaining % ≤ 80%) | A (0% ≤ substrate protein remaining % ≤ 80%) | – | B (80%< substrate protein remaining %≤ 100%) | 10 to 50 nM | B (80%< substrate protein remaining %≤ 100%) | A (0% ≤ substrate protein remaining % ≤ 80%) | A (0% ≤ substrate protein remaining % ≤ 80%) | – | < 500 nM
